According to patent US9113629B2, “4-amino-6-(4-substituted-phenyl)-picolinates and 6-amino-2-(4-substituted-phenyl)-pyrimidine-4-carboxylates and their use as herbicides” (DOW AGROSCIENCES LLC, priority 2013, dated 2015):
Like-named read-outs stand apart in the source and are kept apart here.

Tests used:
Assay in all cases: Post-emergent Test III, herbicidal activity in wheat and barley
Type in all cases: in vivo
[1] = tested on: SASKR: Russian thistle (Salsola iberica); settings: Post-emergent Test III; for GR50 SASKR: dose for 50% growth reduction; for GR80 SASKR: dose for 80% growth reduction
Method in brief: (§1)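 Plants at the second to third true-leaf stage, grown in a greenhouse at about 18/17 °C with a 14 h photoperiod, were sprayed post-emergence at 187 L/ha with the high rate and ½× to 1/16× serial dilutions in an acetone/DMSO/crop-oil/surfactant carrier. Injury was rated visually at 21 d on a 0–100% scale, and GR20–GR90 were derived by probit analysis.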

[2] = tested on: HORSS: barley, including spring and winter (Hordeum vulgare); settings: Post-emergent Test III; for GR20 HORSS: 21 days after application, dose for 20% growth reduction, probit analysis
Method in brief: as §1

[3] = tested on: VIOSS: wild pansy (Viola tricolor), field violet (Viola arvensis); settings: Post-emergent Test III; for GR50 VIOSS: dose for 50% growth reduction; for GR80 VIOSS: dose for 80% growth reduction
Method in brief: as §1

[4] = tested on: KCHSC: kochia (Kochia scoparia); settings: for pest or weed control at 35 g/ha: 35 g ai/ha; for pest or weed control at 70 g/ha: 70 g ai/ha
Method in brief: as §1

[5] = tested on: MATSS: scented mayweed (Matricaria chamomilla), pineappleweed (Matricaria matricarioides); settings: for pest or weed control at 35 g/ha: 35 g ai/ha; for pest or weed control at 70 g/ha: 70 g ai/ha
Method in brief: as §1

[6] = tested on: TRZSS: wheat, including spring and winter (Triticum aestivum); settings: Post-emergent Test III; for GR20 TRZSS: 21 days after application, dose for 20% growth reduction, probit analysis
Method in brief: as §1

[7] = tested on: APESV: bentgrass (Apera spica-venti)
Method in brief: as §1

[8] = 21 days after application, dose for 20% growth reduction, probit analysis
[9] = 21 days after application, probit analysis
[10] = Bassia scoparia, post-emergence, 504 h, Post-emergent Test III, read-out: Visual Growth Reduction (%) 21 Days After Application, KCHSC
[11] = Post-emergent Test III, 21 days after application, dose for 20% growth reduction, probit analysis
[12] = Post-emergent Test III, 21 days after application, dose for 50% growth reduction, probit analysis
[13] = Post-emergent Test III, 21 days after application, dose for 80% growth reduction, probit analysis
[14] = Matricaria chamomilla, post-emergence, 504 h, Post-emergent Test III, read-out: Visual Growth Reduction (%) 21 Days After Application, MATSS
[15] = Bassia scoparia, post-emergence, 504 h, read-out: Visual Growth Reduction (%) 21 Days After Application KCHSC
[16] = probit analysis, dose for growth reduction of 50 percent, 21 days after application
[17] = probit analysis, dose for growth reduction of 80 percent, 21 days after application
[18] = Matricaria chamomilla, post-emergence, 504 h, read-out: Visual Growth Reduction (%) 21 Days After Application MATSS

SMILES	Visual Growth Reduction (%) 21 Days After Application, SASKR ([1]; 35 g ai/ha)	Visual Growth Reduction (%) 21 Days After Application, SASKR ([1]; 70 g ai/ha)	GR50 SASKR [1, 9]	GR80 SASKR [1, 9]	Visual Growth Reduction (%) 21 Days After Application, HORSS ([2]; 35 g ai/ha)	Visual Growth Reduction (%) 21 Days After Application, HORSS ([2]; 70 g ai/ha)	GR20 HORSS [2]	Visual Growth Reduction (%) 21 Days After Application, VIOSS ([3]; 35 g ai/ha)	Visual Growth Reduction (%) 21 Days After Application, VIOSS ([3]; 70 g ai/ha)	GR50 VIOSS [3, 9]	GR80 VIOSS [3, 9]	pest or weed control at 35 g/ha [4, 10]	pest or weed control at 70 g/ha [4, 10]	GR50 KCHSC [4, 12]	GR80 KCHSC [4, 13]	pest or weed control at 35 g/ha [5, 14]	pest or weed control at 70 g/ha [5, 14]	GR50 MATSS [5, 12]	GR80 MATSS [5, 13]	Visual Growth Reduction (%) 21 Days After Application, TRZSS ([6]; 35 g ai/ha)	further results
COC(=O)c1nc(-c2ccc(C(F)(F)F)c(F)c2F)c(F)c(N)c1Cl [Compound 149]	D (60-74)	D (60-74)	24 g ai/ha	100 g ai/ha	D (60-74)	C (75-84)	21 g ai/ha	F (30-44)	D (60-74)	44 g ai/ha	>140 g ai/ha	30 to 44%	60 to 74%	56 g ai/ha	>140 g ai/ha	45 to 59%	60 to 74%	38 g ai/ha	>140 g ai/ha	E (45-59)	GR20, SASKR [1, 8]: 6 g ai/ha; GR20, VIOSS [3, 8]: 11 g ai/ha; GR20, KCHSC [4, 11]: 18 g ai/ha; GR20, MATSS [5, 11]: 9 g ai/ha; Visual Growth Reduction (%) 21 Days After Application, TRZSS ([6]; 70 g ai/ha): C (75-84); GR20 TRZSS [6]: 20 g ai/ha
COC(=O)c1nc(-c2ccc(C(F)(F)F)c(F)c2)c(F)c(N)c1Cl [Compound 165]	C (75-84)	B (85-94)	4 g ai/ha	46 g ai/ha	C (75-84)	B (85-94)	9 g ai/ha	F (30-44)	D (60-74)	55 g ai/ha	>140 g ai/ha	85 to 94%	85 to 94%	9 g ai/ha	30 g ai/ha	0 to 29%	45 to 59%	81 g ai/ha	>140 g ai/ha	D (60-74)	Visual Growth Reduction (%) 21 Days After Application, TRZSS ([6]; 70 g ai/ha): C (75-84); GR20 TRZSS [6]: 8 g ai/ha
COC(=O)c1nc(-c2ccc(F)cc2)c(F)c(N)c1Cl [Compound 204]	–	–	–	–	–	–	–	–	–	–	–	–	–	–	–	–	–	–	–	–	pest or weed control at 35 g/ha [4, 15]: 85 to 94%; pest or weed control at 70 g/ha [4, 15]: 95 to 100%; pest or weed control at 140 g/ha ([4]; Bassia scoparia, post-emergence, 504 h, 140 g ai/ha, read-out: Visual Growth Reduction (%) 21 Days After Application KCHSC): 95 to 100%; GR50 KCHSC [4, 16]: 2 g ai/ha; GR80 KCHSC [4, 17]: 9 g ai/ha; pest or weed control at 35 g/ha [5, 18]: 0 to 29%; pest or weed control at 70 g/ha [5, 18]: 0 to 29%; pest or weed control at 140 g/ha ([5]; Matricaria chamomilla, post-emergence, 504 h, 140 g ai/ha, read-out: Visual Growth Reduction (%) 21 Days After Application MATSS): 0 to 29%; GR50 MATSS [5, 16]: >140 g ai/ha; GR80 MATSS [5, 17]: >140 g ai/ha; pest or weed control at 35 g/ha ([7]; Apera spica-venti, post-emergence, 504 h, 35 g ai/ha, read-out: Visual Growth Reduction (%) 21 Days After Application APESV): 0 to 29%; pest or weed control at 70 g/ha ([7]; Apera spica-venti, post-emergence, 504 h, 70 g ai/ha, read-out: Visual Growth Reduction (%) 21 Days After Application APESV): 30 to 44%; pest or weed control at 140 g/ha ([7]; Apera spica-venti, post-emergence, 504 h, 140 g ai/ha, read-out: Visual Growth Reduction (%) 21 Days After Application APESV): 60 to 74%; GR50 APESV [7, 16]: 106 g ai/ha; GR80 APESV [7, 17]: >140 g ai/ha
